# Reference: patent US20010016560A1, “Herbicidal compositions” (priority 1998, published 2001)
# How the values were obtained:
# SACOF RB68 5089 [1] = test: Field test Brazil, crop effect, heavy clay soil (Example 1); assay type: in vivo, ratoon sugarcane
# Description: (§1) [0042] The following test was conducted in Brazil: Tebuthiuron (used as the commercial formulation “Combine™”, a suspension concentrate containing […] active ingredient) and 5-cyclopropyl-4-(2-methylsulfonyl-4-trifluoromethyl)benzoylisoxazole (isoxaflutole, hereafter referred to as Compound A), which was formulated as wettable granules, were sprayed alone and in tank mix combination (spray rate 300 l/ha) to a plot 5 meters by 3 meters pre-emergence of the weeds and ratoon sugarcane (varieties RB72 454 and […]). The soil was a heavy clay soil containing 1.8% organic matter, […] (pH 5.3) and had been sown on the same day as application with the weed species (the application was made to the ratoon cane about 90 days after cutting and before re-growth). Visual assessment was made 95 days after treatment in comparison with an untreated control plot. Two replicates were performed.
# SACOF RB72 454 [2] = test: as above; assay type: in vivo, ratoon sugarcane
# Description: as §1
# SACOF RB68 5089 [3] = test: Field test Brazil, crop effect, light sandy soil (Example 2); assay type: in vivo, ratoon sugarcane
# Description: as §1
# (§2) [0044] The following test was conducted in Brazil following the same procedure as described in Example 1 above but where the soil type was light sandy containing 1.8% organic matter, 82% sand and 13% clay (pH 5.3). Again, two replicates were performed.
# SACOF RB72 454 [4] = test: as above; assay type: in vivo, ratoon sugarcane
# Description: as §1, §2
# DIGHO [5] = test: Field test Brazil, pre-emergence, light sandy soil (Example 2); assay type: in vivo; settings: 95 days after treatment vs untreated plot, g/ha: Cpd A 150, Tebuthiuron 500, mix 500+150
# Description: as §1, §2
# ECHCG [6] = test: as above; assay type: in vivo; settings: 95 days after treatment vs untreated plot, g/ha: Cpd A 150, Tebuthiuron 500, mix 500+150
# Description: as §1, §2
# AMASP [7] = test: as above; assay type: in vivo; settings: 95 days after treatment vs untreated plot, g/ha: Cpd A 150, Tebuthiuron 500, mix 500+150
# Description: as §1, §2
# BRAPL [8] = test: as above; assay type: in vivo; settings: 95 days after treatment vs untreated plot, g/ha: Cpd A 150, Tebuthiuron 500, mix 500+150
# Description: as §1, §2
# SIDRH = test: as above; assay type: in vivo; settings: 95 days after treatment vs untreated plot, g/ha: Cpd A 150, Tebuthiuron 500, mix 500+150
# Description: as §1, §2
# ELEIN [9] = test: as above; assay type: in vivo; settings: 95 days after treatment vs untreated plot, g/ha: Cpd A 150, Tebuthiuron 500, mix 500+150
# Description: as §1, §2
# DIGHO [10] = test: Field test Brazil, pre-emergence, heavy clay soil (Example 1); assay type: in vivo; settings: 95 days after treatment vs untreated plot, g/ha: Cpd A 150, Tebuthiuron 500, mix 500+150
# Description: as §1
# ECHCG [11] = test: as above; assay type: in vivo; settings: 95 days after treatment vs untreated plot, g/ha: Cpd A 150, Tebuthiuron 500, mix 500+150
# Description: as §1
# AMASP [12] = test: as above; assay type: in vivo; settings: 95 days after treatment vs untreated plot, g/ha: Cpd A 150, Tebuthiuron 500, mix 500+150
# Description: as §1
# BRAPL [13] = test: as above; assay type: in vivo; settings: 95 days after treatment vs untreated plot, g/ha: Cpd A 150, Tebuthiuron 500, mix 500+150
# Description: as §1
# PANMA = test: as above; assay type: in vivo; settings: 95 days after treatment vs untreated plot, g/ha: Cpd A 150, Tebuthiuron 500, mix 500+150
# Description: as §1
# ELEIN [14] = test: as above; assay type: in vivo; settings: 95 days after treatment vs untreated plot, g/ha: Cpd A 150, Tebuthiuron 500, mix 500+150
# Description: as §1
# [15] = pre-emergence, 95 days after treatment vs untreated plot, heavy clay soil, g/ha: Cpd A 150, Tebuthiuron 500, mix 500+150
# [16] = pre-emergence, 95 days after treatment vs untreated plot, light sandy soil, g/ha: Cpd A 150, Tebuthiuron 500, mix 500+150
smiles,measurement,setting,value
"CS(=O)(=O)c1cc(C(F)(F)F)ccc1C(=O)c1cnoc1C1CC1 [Cpd A, 5-cyclopropyl-4-(2-methylsulfonyl-4-trifluoromethyl)benzoylisoxazole]",Visual assessment SACOF RB68 5089 (crop),SACOF RB68 5089 [1]; in vivo,0
same,Visual assessment SACOF RB72 454 (crop),SACOF RB72 454 [2]; in vivo,0
same,Visual assessment SACOF RB68 5089 (crop),SACOF RB68 5089 [3]; in vivo,0
same,Visual assessment SACOF RB72 454 (crop),SACOF RB72 454 [4]; in vivo,0
same,Visual assessment DIGHO,DIGHO [5],20
same,Visual assessment ECHCG,ECHCG [6],20
same,Visual assessment AMASP,AMASP [7],27.5
same,Visual assessment BRAPL,BRAPL [8],15
same,Visual assessment SIDRH,SIDRH,10
same,Visual assessment ELEIN,ELEIN [9],30
same,Visual assessment DIGHO,DIGHO [10],75
same,Visual assessment ECHCG,ECHCG [11],50
same,Visual assessment AMASP,AMASP [12],80
same,Visual assessment BRAPL,BRAPL [13],70
same,Visual assessment PANMA,PANMA,85
same,Visual assessment ELEIN,ELEIN [14],85
CNC(=O)N(C)c1nnc(C(C)(C)C)s1 [Tebuthiuron],Visual assessment SACOF RB68 5089 (crop),SACOF RB68 5089 [1]; [15],0
same,Visual assessment SACOF RB72 454 (crop),SACOF RB72 454 [2]; [15],0
same,Visual assessment SACOF RB68 5089 (crop),SACOF RB68 5089 [3]; [16],0
same,Visual assessment SACOF RB72 454 (crop),SACOF RB72 454 [4]; [16],0
same,Visual assessment DIGHO,DIGHO [5],20
same,Visual assessment ECHCG,ECHCG [6],15
same,Visual assessment AMASP,AMASP [7],70
same,Visual assessment BRAPL,BRAPL [8],20
same,Visual assessment SIDRH,SIDRH,60
same,Visual assessment ELEIN,ELEIN [9],20
same,Visual assessment DIGHO,DIGHO [10],10
same,Visual assessment ECHCG,ECHCG [11],10
same,Visual assessment AMASP,AMASP [12],75
same,Visual assessment BRAPL,BRAPL [13],10
same,Visual assessment PANMA,PANMA,5
same,Visual assessment ELEIN,ELEIN [14],20
